In article PMC1664607 (PLoS Medicine, 2006):
Converted amounts (≈) assume the structure as drawn. Read-outs that look alike come from different tables or passages of the source.

Key:
[1] = test system: S. typhimurium TA1535; assay: Bacterial reverse mutation (BRM) test; assay type: cell-based
In short: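 OECD 471 pre-incubation method: strains pre-cultured 18 h at 37 °C, adjusted to OD660 2.4, then incubated 20 min at 37 °C with compound, with or without rat liver S9 mix. Plated in top agar, and revertant colonies counted after 48 h at 37 °C.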

[2] = test system: M. tuberculosis ATCC 35838 (H37Rv-R-R); assay: microbe, parasite or virus in culture; assay type: cell-based; details: Mycobacterium tuberculosis, 336 h
[3] = test system: M. tuberculosis ATCC 35812 (Kurono); assay: Susceptibility testing (agar dilution MIC); assay type: cell-based; details: Mycobacterium tuberculosis, ATCC35812, 336 h; 7H11 agar, 37 °C, 14 d; read-out: MIC
[4] = test system: clinically isolated M. tuberculosis; assay: microbe, parasite or virus in culture; assay type: cell-based; details: for MIC90: Mycobacterium tuberculosis, read-out: MIC90
[5] = test system: M. tuberculosis Kurono; assay: Therapeutic efficacy in an experimental mouse model of chronic TB; assay type: in vivo, ICR mice; details: for Log of Viable Counts/Lung: mean ± S.D., n = 5
[6] = test system: CYP2C8/9; assay: Tolubutamide methylhydroxylation in human liver microsomes; assay type: in vitro ADME; details: 400 μM tolbutamide
[7] = biological target: T1, CYP2B6 (Homo sapiens, UniProt P20813); details: […] 7-benzyloxyresorufin
T1 sequence (P20813 1-491): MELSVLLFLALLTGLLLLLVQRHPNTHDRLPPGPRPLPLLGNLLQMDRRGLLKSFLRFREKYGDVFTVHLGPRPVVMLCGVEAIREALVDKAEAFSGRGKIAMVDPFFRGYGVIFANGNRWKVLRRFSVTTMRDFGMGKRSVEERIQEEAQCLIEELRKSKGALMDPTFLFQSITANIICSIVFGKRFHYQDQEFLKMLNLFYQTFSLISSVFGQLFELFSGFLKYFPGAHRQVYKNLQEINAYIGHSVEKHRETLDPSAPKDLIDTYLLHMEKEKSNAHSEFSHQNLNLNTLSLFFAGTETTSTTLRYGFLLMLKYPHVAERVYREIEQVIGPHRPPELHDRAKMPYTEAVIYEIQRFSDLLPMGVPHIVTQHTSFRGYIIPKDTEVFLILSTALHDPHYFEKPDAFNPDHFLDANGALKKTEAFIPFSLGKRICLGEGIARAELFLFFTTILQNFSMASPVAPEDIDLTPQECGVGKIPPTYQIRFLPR

[8] = Plasma levels in an experimental mouse model of TB; details: in vivo, po

C[C@]1(COc2ccc(N3CCC(Oc4ccc(OC(F)(F)F)cc4)CC3)cc2)Cn2cc([N+](=O)[O-])nc2O1 [OPC-67683, (R)-2-methyl-6-nitro-2-(4-[4-(4-trifluoromethoxyphenoxy)piperidin-1-yl]phenoxymethyl}-2,3-dihydroimidazo[2,1-b]oxazole]
Revertants/Plate ([1]; S9 mix +, 625 μg/plate): 6 Revertants/Plate | Revertants/Plate ([1]; S9 mix +, 2,500 μg/plate): 8 Revertants/Plate | Revertants/Plate ([1]; S9 mix +, 5,000 μg/plate): 9 Revertants/Plate | Revertants/Plate ([1]; S9 mix −, 312.5 μg/plate): 6 Revertants/Plate | Revertants/Plate ([1]; S9 mix −, 625 μg/plate): 9 Revertants/Plate | Revertants/Plate ([1]; S9 mix −, 2,500 μg/plate): 7 Revertants/Plate | Revertants/Plate ([1]; S9 mix −, 5,000 μg/plate): 6 Revertants/Plate | MIC [2]: 0.006 µg/mL (≈ 0.0112 µM) | MIC [3]: 0.012 µg/mL (≈ 0.0225 µM) | MIC90 of OPC-67683 times lower than that of EB [4]: ~303 times | MIC90 of OPC-67683 times lower than that of INH [4]: eight | MIC90 of OPC-67683 times lower than that of RFP [4]: about 24 times | MIC90 of OPC-67683 times lower than that of SM [4]: ~244 times | MIC90 ([4]; EB-susceptible M. tuberculosis (56 strains)): 0.0121 µg/mL (≈ 0.0227 µM) | MIC90 ([4]; INH-susceptible M. tuberculosis (31 strains)): 0.0119 µg/mL (≈ 0.0223 µM) | MIC90 ([4]; RFP-susceptible M. tuberculosis (31 strains)): 0.0125 µg/mL (≈ 0.0233 µM) | MIC90 ([4]; SM-susceptible M. tuberculosis (49 strains)): 0.012 µg/mL (≈ 0.0225 µM) | MIC90 [4]: 0.012 µg/mL (≈ 0.0225 µM) | Log of Viable Counts/Lung ([5]; 0.156 mg/kg once daily for 28 d (4 weeks)): 6.506 ± 0.294^a:NS, b:NS | Log of Viable Counts/Lung ([5]; 0.313 mg/kg once daily for 28 d (4 weeks)): 5.959 ± 0.436^a:**, b:** | Log of Viable Counts/Lung ([5]; 0.625 mg/kg once daily for 28 d (4 weeks)): 5.457 ± 0.245^a:**, b:** | Log of Viable Counts/Lung ([5]; 1.25 mg/kg once daily for 28 d (4 weeks)): 4.867 ± 0.400^a:**, b:** | Log of Viable Counts/Lung ([5]; 2.5 mg/kg once daily for 28 d (4 weeks)): 4.753 ± 0.297^a:**, b:** | Log of Viable Counts/Lung ([5]; 5 mg/kg once daily for 28 d (4 weeks)): 4.272 ± 0.463^a:**, b:** | Log of Viable Counts/Lung ([5]; 10 mg/kg once daily for 28 d (4 weeks)): 3.943 ± 0.465^a:**, b:** | Log of Viable Counts/Lung ([5]; 20 mg/kg once daily for 28 d (4 weeks)): 3.495 ± 0.522^a:**, b:** | Log of Viable Counts/Lung ([5]; 40 mg/kg once daily for 28 d (4 weeks)): 2.791 ± 0.671^a:**, b:** | Dose that could produce a CFU reduction of at least 95% ([5]; lung, once daily for 28 d): 0.625 mg/kg | Percent of Control ([6]; 10 μM): 107.2% of Control | Percent of Control ([6]; 30 μM): 107.8% of Control | Percent of Control ([6]; 100 μM): 108.5% of Control | Percent of Control ([7]; 10 μM): 118.3% of Control | Percent of Control ([7]; 30 μM): 112.8% of Control | Percent of Control ([7]; 100 μM): 122.3% of Control | concentration at 1 h [8]: 133 ± 30 ng/mL | concentration at 2 h [8]: 193 ± 40 ng/mL | concentration at 4 h [8]: 220 ± 20 ng/mL | concentration at 6 h [8]: 297 ± 83 ng/mL | AUC(0-t) ([8]; 2.5 mg/kg): 4130 ng·h/mL | Cmax ([8]; 2.5 mg/kg): 297 ng/mL | Tmax ([8]; 2.5 mg/kg): 6 h | concentration at 12 h ([8]; 2.5 mg/kg): 166 ± 49 ng/mL | concentration at 24 h ([8]; 2.5 mg/kg): 49 ± 12 ng/mL | half-life ([8]; 2.5 mg/kg): 7.6 h
